The values that follow come from patent publication US5958940A, “Tricyclic compounds useful as inhibitors of farnesyl-protein transferase” (Schering Corporation, priority 1997, dated 1999).

As a reminder, the inhibition is the change of the read-out against control, counted positive when it falls. A low value points to little suppression.

This experiment concerns the target T1, farnesyl protein transferase (Rattus norvegicus, UniProt Q02293+Q04631).
T1 construct: partially purified rat brain farnesyl protein transferase (FPT); from tissue; host or cells: rat brain, partially purified
In words: FPT inhibition, in vitro enzyme assay (Ras-CVLS farnesylation by partially purified rat brain FPT). Type of experiment: biochemical.

On to `O=C(NCc1cccnc1)[C@@H]1CCN1C1c2ccc(Cl)cc2CCc2cc(Br)cnc21` (single isomer, unassigned) [Example 3 Isomer B, 1-(3-bromo-8-chloro-6,11-dihydro-5H-benzo[5,6]cyclohepta[1,2-b]pyridine-11-yl)-N-(3-pyridinylmethyl)2-azetidine carboxamide], for which, where the note is “@0.1 μM”, at 0.1 µM the inhibition was 17%.
`O=C(NCc1cccnc1)[C@@H]1CCCN1C1c2ncc(Br)cc2CCc2cc(Cl)cc(Br)c21` (single isomer, unassigned) [Example 2 Isomer A, 1-(3,10-dibromo-8-chloro-6,11-dihydro-5H-benzo[5,6]cyclohepta[1,2-b]pyridine-11-yl)-N-(3-pyridinylmethyl)-2-pyrrolidine carboxamide] came in with an inhibition at 0.3 µM (@0.3 μM) of 15%.
